The subject of data set [1] is 80 different CNS neurotransmitters receptors. The experiment in a line: Screen for in vitro affinity to 80 different CNS neurotransmitters receptors. Format: binding. The source says: MAP4343 has been screened for in vitro affinity to 80 different CNS neurotransmitters receptors using various validated binding assays.
A short description of data set [2]: Neurosteroids and 3-methoxy-PREG levels in plasma and hippocampus. The following applies: rat.
Data set [3] relates to spinal cord compression in rats. The experiment in a line: Spinal cord compression model, locomotor recovery (BBB score). The format is in vivo, rat. As to conditions: 12 mg/kg/day subcutaneous for 2 weeks; as of post-operation day 7. The procedure: FIG. 7: Effect of molecule 43B on locomotor recovery following spinal cord compression in rats. Animal locomotion was evaluated in a blind format during the 1-28 day post-operative period using the BBB score which evaluates the degree of paralysis (higher values correspond to better recovery). Statistical significance: * indicates p<0.001; ** indicates p<0.0001.
To determine the neuroprotective effects of the molecules tested, a spinal cord compression model is used. This model involves the total paralysis of the animals in the first few days following the operation. This period of paralysis is followed of a phase of approximately three weeks during which the animals partially recover their motor function. The study of this recovery using a simple and precise functional test based on observation of the animals (the BBB score) makes it possible to study the speed and the degree of recovery of the animals, with and without treatment.
Two groups of rats were subjected to spinal cord compression. Then, daily for 2 weeks, the animals received a subcutaneous injection containing either sesame oil alone (control group, n=20), or sesame oil containing molecule 43B (43B group, n=20; 12 mg/kg/day). The first injection was given minutes after spinal cord compression. Locomotion of the animals, using BBB scores, was evaluated in a blind format on post-operation days 1, 4, 7, 14, 21, and 28. […]

In the next data set the test system is CCI-injured animals. Put plainly: Histological analysis of the hippocampus size after CCI. Format: in vivo, rat. The following applies: 10 mg/kg and 20 mg/kg, first injection 2 h after TBI, day 35. The protocol:
FIG. 18: Size of the hippocampus of CCI-injured animals, receiving the first injection of MAP4343 (or vehicle) 2 h after TBI. Data are expressed in percentage of the non-injured hippocampus of Dose 0 (vehicle) animals. ***: p<0.001 Dose 0 injured vs non-injured hippocampus; $: p<0.05 vs Dose 0 injured hippocampus.
CCI was performed with an electromagnetic impact device as described (MyNeurolab, St. Louis, Mo.; Brody et al. 2007). Anesthesized rats were subjected to a single right lateral CCI, with the following parameters: impact centered 4.0 mm anterior to lambda and 4.5 mm […] of midline, within the craniotomy of the animal. The impact was set at a velocity of 4 m/s with a sustained depression of 200 ms, using a 5.0 mm tip.
Frozen sections were stained with cresyl violet. For each section analyzed, the size of the hippocampus was determined by first outlining all remaining tissue of each section taken at 500 μm intervals through the lesion (right hemisphere) or contra lateral hemisphere, thus providing a total tissue area (mm2) of the two hemispheres for each section. Then, the areas of sections were summed per hemisphere.

In data set [4] the test system is microtubule-associated MAP2 in PC12 cells. Put plainly: Immunolabeling of microtubule-associated MAP2 in PC12 cells. The format is cell-based, rat. As to conditions: 20 μM, NGF 10 ng/ml (FIG. 4). The source says:
They were fixed and exposed to anti-MAP2 antibodies that reveal microtubule-associated MAP2 exclusively.
To test the effect of selected molecules on neuritic growth, we first used the PC12 line, which has long been employed in neurobiological research. In the presence of NGF (nerve growth factor), the cells of this line, which arise from a rat pheochromocytoma, form neuritic extensions containing MAP-associated microtubules. The growth of these elongations is stimulated by the addition of PREG. […] This neurite growth accompanies the stimulation by 43-B of the association of MAP2 to the microtubules (FIG. 4).

The subject of data set [5] is Sprague Dawley rats in the FST. Put plainly: Forced swimming test (FST). The format is in vivo, rat. As to conditions: 10 mg/kg subcutaneously, 24, 5, 1 h before testing. The source says:
(A) 3-methoxy-PREG (43B) decreased rat immobility in the FST showing antidepressant activity. Results are expressed as mean±SEM (n=6-14). One-way ANOVA: Treatment (F5, 46: 4.30 P<0.01). ***P<0.001, *P<0.05 vs. water and sesame oil (Fisher LSD test). […] Results are expressed as mean±SEM (n=6-14). One-way ANOVA: Treatment (F5, 46: 3.57 P<0.01). **P<0.01, *P<0.05 vs. water and sesame oil (Fisher LSD test). […] One-way ANOVA: Treatment (F5, 46: 3.57 P<0.01). **P<0.01, *P<0.05 vs. water and sesame oil (Fisher LSD test).
Drugs were administered following the traditional dosing regimen used in the FST consisting of three injections: 24, 5, 1 h before testing.
The FST is currently the most widely used animal model for assessing depression related behavior and antidepressant drug activity in rodents (Cryan et al., Neubiorev. 2005). Rats are placed in an inescapable cylinder of water where they develop an immobile posture believed to reflect a “depressive”-like state. The time rats spend immobile is decreased by drugs exerting antidepressant activity.
Additional behaviors can be detected in the FST; namely, climbing and swimming. It has been shown that swimming behavior is sensitive to SSRIs such as fluoxetine whereas climbing is sensitive to norepinephrine re-uptake inhibitors (NRI) such as desipramine.

The subject of a further data set is GAP43. The experiment in a line: Western blot of GAP43 in cortex and hippocampus after CCI. The format is in vivo, rat. As to conditions: first injection 2 h post-trauma, day 35, injured cortex (20 mg/kg only), hippocampus and non-injured cortex (both doses). The protocol: FIG. 23: GAP43 expression, 35 days after TBI, in the left-uninjured and right-injured hemispheres (A: cortex and B: hippocampus) of CCI-injured animals, receiving either vehicle (D0) or MAP4343 (D1: 10 mg/kg and D2: 20 mg/kg), 2 h after injury.
Samples were analyzed by Western-blot at day 35 post-trauma (D35) to evaluate the effects of MAP4343 on: MAP2 (the target of MAP4343 and a modulator of microtubule function), the post-synaptic markers PSD95 and spinophilin, the pre-synaptic marker synaptophysin, and the axonal growth/integrity marker GAP43.
Western blot was performed on cortex and hippocampus of TBI-injured animals receiving the first injection of MAP4343 (at 10 mg/kg or 20 mg/kg) or vehicle (sesame oil) 2 h after injury.
The expression level of various neuronal brain markers of plasticity was measured at day 35 post-trauma by western-blots in the cortex and hippocampus of left uninjured and right injured cerebral hemispheres of CCI traumatized animals receiving either vehicle (sesame oil, CCI-D0) or 3-methoxy-PREG (MAP4343) at 10 mg/kg (CCI-D1) or 20 mg/kg (CCI-D2), with first MAP4343 injection 2 h post-trauma.
On the technique in general: A western blot detects proteins with antibodies after separation by electrophoresis.

Where [6] appears, read: 3 h following injection, 10 mg/kg subcutaneously.

Consider `CO[C@H]1CC[C@@]2(C)C(=CC[C@H]3[C@@H]4CC[C@H](C(C)=O)[C@@]4(C)CC[C@@H]32)C1` [3-methoxy-PREG, 3β-methoxy-pregna-5-ene-20-one], for which, in data set [1], the “affinity for any tested receptor” value was “no significant affinity”. Also, the “conversion back to PREG or metabolism to PROG” value in data set [2] (3 h after 10 mg/kg subcutaneously) is “not converted back to PREG or metabolized to PROG”. Also, in data set [2] (setting [6]), the “concentration of the drug in hippocampus” value worked out at 73.3 ± 14.68 ng/g and the “concentration of the drug in plasma” value amounted to 21.11 ± 5.04 ng/mL. Further, the “BBB score (locomotion)” value in data set [3] is on record as “quite significantly higher than the control animals”. Besides, in the data set with CCI-injured animals, the “size of the injured hippocampus” value was “significantly increases the size of the injured hippocampus”. For the same molecule, the “association of MAP2 to the microtubules” value in data set [4] is “stimulation”. Moreover, in data set [5], the “rat climbing behavior in the FST” value is reported as “not changed”, the “rat immobility in the FST” value is listed as “significantly decreased” and the “rat swimming in the FST” value is “significantly increased”. For the same molecule, the GAP-43 expression entry in the data set with GAP43 is “increased GAP-43 expression”.
